# Measured values published in ChEMBL document CHEMBL1147471, “Selecting against S1P3 enhances the acute cardiovascular tolerability of 3-(N-benzyl)aminopropylphosphonic acid S1P receptor agonists” (Bioorg Med Chem Lett, 2004).
# Assays:
# [1] = in vivo; details: rat, plasma, iv, 1 mg/kg
# [2] = in vivo; details: rat, iv, 1 mg/kg
# [3] = in vivo; details: rat, iv, 1 mg/kg; remark: listed apart in the source
structure (smiles),measurement,setting,value
CCCCCCCCOc1c(Br)cc(CNCCCP(=O)(O)O)cc1OC,clearance,[1],9.2 mL/min/kg
same,Vd,[2],1.4 L/kg
same,half-life,[3],2.1 h
